Data: patent publication US11365192B2, “Pyridine compound substituted with azole” (TAISHO PHARMACEUTICAL CO., LTD., priority 2017, dated 2022)

Tests used:
human CYP4A11 = human CYP4A11 (Homo sapiens (Human), UniProt Q02928); assay: Inhibition test against 20-HETE producing enzyme CYP4A11 (luciferine derivative, luminescence); type: biochemical
Experimental: (§1) (1) Inhibition Test for Each Compound of the Present Invention Against 20-HETE Producing Enzymes (CYP4F2 and CYP4A11)
(§2) In the CYP4F2 inhibition test, the reaction solution containing each compound [final concentration of 50 mM, KPO4 (pH 7.4), 2.5 μM luciferine derivative, and 1 mM NADPH] was added to an Escherichia coli membrane fraction (100 μg/mL protein) in which human CYP4F2 had been expressed. In the CYP4A11 inhibition test, the reaction solution containing each compound [final concentration of 100 mM, Tris-HCl (pH 7.5), 60 μM luciferine derivative, 1.3 mM NADP^+, 3.3 mM Glucose 6-Phosphate, 3.3 mM MgCl2, and 0.4 U/mL Glucose 6-Phosphate dehydrogenase] was added to an Escherichia coli membrane fraction (100 μg/mL protein) in which human CYP4A11 had been expressed. Following this, the membrane fraction was left to stand at room temperature for 60 minutes to perform an enzymatic reaction. After the reaction, a luciferine detection reagent was added, and the luminescence value was measured using a plate reader. By using that value, the percent inhibition of 20-HETE producing enzyme (%) was calculated according to the equation described below, and the 50% inhibitory concentration (IC50 value) for each compound was calculated. Percent inhibition of 20-HETE producing enzyme (%)=[1−(A−B)/(C−B)]*100
(§3) A: Luminescence value with addition of compound
(§4) B: Luminescence value without addition of compound and enzyme

human CYP4F2 = human CYP4F2 (Homo sapiens (Human), UniProt P78329); assay: Inhibition test against 20-HETE producing enzyme CYP4F2 (luciferine derivative, luminescence); type: biochemical
Chain of human CYP4F2 (P78329 5-520): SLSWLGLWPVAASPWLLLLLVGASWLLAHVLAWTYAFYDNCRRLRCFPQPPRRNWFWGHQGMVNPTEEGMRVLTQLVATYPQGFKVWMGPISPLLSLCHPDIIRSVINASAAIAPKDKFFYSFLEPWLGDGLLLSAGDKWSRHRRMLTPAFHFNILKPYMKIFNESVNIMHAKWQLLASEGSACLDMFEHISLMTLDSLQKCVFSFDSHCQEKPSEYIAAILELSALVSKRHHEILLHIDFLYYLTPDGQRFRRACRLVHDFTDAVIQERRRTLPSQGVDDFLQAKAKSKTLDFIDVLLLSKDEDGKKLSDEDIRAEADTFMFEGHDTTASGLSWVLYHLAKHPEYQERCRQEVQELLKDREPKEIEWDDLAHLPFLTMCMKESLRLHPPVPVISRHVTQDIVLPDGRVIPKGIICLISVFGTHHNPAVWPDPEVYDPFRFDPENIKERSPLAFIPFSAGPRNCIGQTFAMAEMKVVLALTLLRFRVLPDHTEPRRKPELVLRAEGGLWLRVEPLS
Experimental: as §1, §2, §3, §4

[1] = E. coli membrane fraction expressing human CYP4A11, 60 μM luciferine derivative, room temperature 60 minutes
[2] = E. coli membrane fraction expressing human CYP4F2, 2.5 μM luciferine derivative, room temperature 60 minutes
[3] = human CYP4A11, luciferine derivative, luminescence
[4] = human CYP4F2, luciferine derivative, luminescence

Chain of human CYP4A11 (Q02928 5-519): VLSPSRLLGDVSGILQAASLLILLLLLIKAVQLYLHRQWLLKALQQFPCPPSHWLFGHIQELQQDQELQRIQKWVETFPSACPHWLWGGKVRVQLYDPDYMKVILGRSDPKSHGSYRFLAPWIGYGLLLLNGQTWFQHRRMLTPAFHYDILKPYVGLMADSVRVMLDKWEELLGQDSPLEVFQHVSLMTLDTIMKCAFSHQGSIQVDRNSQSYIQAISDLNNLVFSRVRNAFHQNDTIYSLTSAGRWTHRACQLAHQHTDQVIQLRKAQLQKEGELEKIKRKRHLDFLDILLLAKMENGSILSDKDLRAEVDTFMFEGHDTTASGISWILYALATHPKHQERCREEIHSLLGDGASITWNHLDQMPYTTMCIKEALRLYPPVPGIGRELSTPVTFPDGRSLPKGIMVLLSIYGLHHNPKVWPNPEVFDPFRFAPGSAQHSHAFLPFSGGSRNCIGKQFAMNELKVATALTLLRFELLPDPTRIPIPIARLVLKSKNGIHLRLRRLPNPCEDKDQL

Structure (SMILES)	IC50 (human CYP4A11; [1]) [nM]	IC50 (human CYP4F2; [2]) [nM]	IC50 (human CYP4A11; [3]) [nM]	IC50 (human CYP4F2; [4]) [nM]
Oc1cc(CCCOc2ccc(-c3ccn[nH]3)nc2)cc(F)c1F [Example 11-1, 2,3-Difluoro-5-[3-[[6-(1H-pyrazol-5-yl)-3-pyridinyl]oxy]propyl]phenol]	140	5.1	–	–
CC(C)(CCCCCCCOc1ccc(-c2ccn[nH]2)nc1)C(=O)O [Example 1-62]	23	96	–	–
NC(=O)c1cccc(COc2ccc(-c3ccn[nH]3)nc2)c1 [Example 53-1, 3-[[6-(1H-Pyrazol-5-yl)-3-pyridinyl]oxymethyl]benzamide]	110	190	–	–
O=C(O)CCNC(=O)c1cccc(COc2ccc(-c3ccn[nH]3)nc2)c1 [Example 45-1, 3-[[Oxo-[3-[[6-(1H-pyrazol-5-yl)-3-pyridinyl]oxymethyl]phenyl]methyl]amino]propanoic Acid]	–	–	120	7600
CC(C)(CNC(=O)c1cccc(COc2ccc(-c3ccn[nH]3)nc2)c1)C(=O)O [Example 45-3]	–	–	91	6100
O=C(O)C12CCC(CCCOc3ccc(-c4ccn[nH]4)nc3)(CC1)CC2 [Example 1-30]	34	4100	–	–
O=C(O)Cc1cccc(OCCOc2ccc(-c3ccn[nH]3)nc2)c1 [Example 22-19, 2-[3-[2-[[6-(1H-Pyrazol-5-yl)-3-pyridinyl]oxy]ethoxy]phenyl] acetic Acid]	49	1500	–	–
CS(=O)(=O)NCCCCCCOc1ccc(-c2ccn[nH]2)nc1 [Example 19-1, N-[6-[[6-(1H-Pyrazol-5-yl)-3-pyridinyl]oxy]hexyl]methanesulfonamide]	1700	22	–	–
O=C(O)C1(CCCCOc2ccc(-c3ccn[nH]3)nc2)CCCCC1 [Example 1-35]	84	2200	–	–
O=C(O)c1ncc2c(n1)CN(C(=O)c1cccc(COc3ccc(-c4ccn[nH]4)nc3)c1)C2 [Example 45-43]	–	–	1700	5200
O=C(O)c1cccc(CCCOc2ccc(-c3ccn[nH]3)nc2)c1 [Example 1-9]	79	480	–	–
CC(=O)N1CCC(CCCCCCCCOc2ccc(-c3ccn[nH]3)nc2)(C(=O)O)CC1 [Example 6-1, 1-Acetyl-4-[8-[[6-(1H-pyrazol-5-yl)-3-pyridinyl]oxy]octyl]-4-piperidinecarboxylic Acid]	770	7.9	–	–
O=C(O)C1CC1CCCOc1ccc(-c2ccn[nH]2)nc1 (stereo not shown) [Example 1-28]	74	19000	–	–
O=C(O)c1cnc(-c2cccc(COc3ccc(-c4ccn[nH]4)nc3)c2)nc1 [Example 22-5, 2-[3-[[6-(1H-Pyrazol-5-yl)-3-pyridinyl]oxymethyl]phenyl]-5-pyrimidinecarboxylic Acid]	120	3100	–	–
O=C(O)Cc1cccc(COc2ccc(-c3ccns3)nc2)c1 [Example 39-1, 2-[3-[[6-(5-Isothiazolyl)-3-pyridinyl]oxymethyl]phenyl]acetic Acid]	5.3	13000	–	–
O=C(CCc1cccc(COc2ccc(-c3ccn[nH]3)nc2)c1)NCC(=O)N1CCCC1 [Example 43-11]	–	–	280	32
O=C(O)C12CC(COc3ccc(-c4ccn[nH]4)nc3)(C1)C2 [Example 8-17]	520	22000	–	–
O=C(O)CCCc1cccc(CCCOc2ccc(-c3ccn[nH]3)nc2)c1 [Example 30-4]	140	350	–	–
O=C(O)C1(Cc2cccc(COc3ccc(-c4ccn[nH]4)nc3)c2F)COC1 [Example 71-26]	–	–	39	9700
O=C(O)C[C@H]1CCN(C(=O)c2cccc(COc3ccc(-c4ccn[nH]4)nc3)c2)C1 [Example 45-39]	–	–	470	1400
O=C(O)c1ccc(CCCCOc2ccc(-c3ccn[nH]3)nc2)cc1 [Example 1-18]	14	330	–	–
O=C(O)C1CCC(COc2ccc(-c3ccn[nH]3)nc2)CC1 (stereo not shown) [Example 1-49]	140	24000	–	–
O=C(CCc1cccc(COc2ccc(-c3ccn[nH]3)nc2)c1)N1CC(F)(F)C1 [Example 43-2]	–	–	59	48
O=C(O)Cc1cccc(COc2ccc(-c3cnco3)nc2)c1 [Example 40-1, 2-[3-[[6-(5-Oxazolyl)-3-pyridinyl]oxymethyl]phenyl]acetic Acid]	9.9	28000	–	–

Structure (SMILES)	IC50 (human CYP4A11; [1]) [nM]	IC50 (human CYP4F2; [2]) [nM]	IC50 (human CYP4A11; [3]) [nM]	IC50 (human CYP4F2; [4]) [nM]
O=C(CCc1cccc(COc2ccc(-c3ccn[nH]3)nc2)c1)N1CCCCC1 [Example 42-14]	–	–	240	30
O=C(O)/C=C/c1cccc(COc2ccc(-c3ccn[nH]3)nc2)c1F [Example 70-1, (E)-3-[2-Fluoro-3-[[6-(1H-pyrazol-5-yl)pyridin-3-yl]oxymethyl]phenyl]prop-2-enoic Acid]	–	–	27	49
O=C(O)c1cnn(CCCOc2ccc(-c3ccn[nH]3)nc2)c1 [Example 15-2, 1-[3-[[6-(1H-Pyrazol-5-yl)-3-pyridinyl]oxy]propyl]-4-pyrazolecarboxylic Acid]	690	25000	–	–
O=C(O)C1CC1c1cc(F)cc(CCOc2ccc(-c3ccn[nH]3)nc2)c1 (single isomer, unassigned) [Example 74-10]	–	–	56	2600
O=C(O)c1cccc(COc2ccc(-c3ccn[nH]3)nc2)c1 [Example 22-2]	42	1400	–	–
O=C(O)Cn1ccc(CCCCOc2ccc(-c3ccn[nH]3)nc2)cc1=O [Example 8-15]	530	1400	–	–
CC(C)(C(=O)O)n1ccc(CCCCOc2ccc(-c3ccn[nH]3)nc2)n1 [Example 8-14]	68	11000	–	–
OC(c1ccc(COc2ccc(-c3ccn[nH]3)nc2)cc1)C(F)F (stereo not shown) [Example 59-2, 2,2-Difluoro-1-[4-[[6-(1H-pyrazol-5-yl)-3-pyridinyl]oxymethyl]phenyl]ethanol]	1800	100	–	–
O=C(O)c1cccc(-c2cccc(COc3ccc(-c4ccn[nH]4)nc3)c2)c1 [Example 31-1, 3-[3-[[6-(1H-Pyrazol-5-yl)-3-pyridinyl]oxymethyl]phenyl]benzoic Acid]	9.3	110	–	–
O=C(CCc1cccc(COc2ccc(-c3ccn[nH]3)nc2)c1)NCCO [Example 42-11]	100	95	–	–
COc1ccc(COc2ccc(-c3ccn[nH]3)nc2)cc1C(=O)O [Example 1-65, 2-Methoxy-5-[[6-(1H-pyrazol-5-yl)-3-pyridinyl]oxymethyl]benzoic Acid]	1200	24000	–	–
O=C(O)[C@@H]1CCCN(S(=O)(=O)c2cccc(COc3ccc(-c4ccn[nH]4)nc3)c2)C1 [Example 69-4-1]	–	–	27	86
CC(C)(CC(=O)N1CCC(COc2ccc(-c3ccn[nH]3)nc2)CC1)C(=O)O [Example 46-1, 2,2-Dimethyl-4-oxo-4-[4 [[6-(1H-pyrazol-5-yl)-3-pyridinyl]oxymethyl]-1-piperidinyl]butanoic Acid]	3200	7600	–	–
O=C(O)c1cc(COc2ccc(-c3ccn[nH]3)nc2)ccc1Cl [Example 22-16]	780	33000	–	–
CC(C)(CC(=O)N1CCCC(CCCOc2ccc(-c3ccn[nH]3)nc2)C1)C(=O)O (stereo not shown) [Example 1-32]	9300	3800	–	–
CN([C@H]1CC[C@H](Oc2ccc(-c3ccn[nH]3)nc2)CC1)S(C)(=O)=O [Example 57-3]	2000	2000	–	–
O=C(O)[C@@H]1CCc2ccc(CCOc3ccc(-c4ccn[nH]4)nc3)cc2O1 [Example 71-22-2]	–	–	1000	160
O=C(CCc1cccc(COc2ccc(-c3ccn[nH]3)nc2)c1)N1CC(F)C1 [Example 43-1, 1-(3-Fluoro-1-azetidinyl)-3-[3-[[6-(1H-pyrazol-5-yl)-3-pyridinyl]oxymethyl]phenyl]-1-propanone]	–	–	58	52
O=C(O)C1(CCCCCCOc2ccc(-c3ccn[nH]3)nc2)CCS(=O)(=O)CC1 [Example 3-7]	1600	5700	–	–
O=C(O)C1CC1c1ccc(CCOc2ccc(-c3ccn[nH]3)nc2)cc1F (stereo not shown) [Example 70-8]	–	–	130	120
O=C(O)C1(c2cccc(COc3ccc(-c4ccn[nH]4)nc3)c2)CCOCC1 [Example 33-2, 4-[3-[[6-(1H-Pyrazol-5-yl)-3-pyridinyl]oxymethyl]phenyl]-4-oxanecarboxylic Acid]	130	14000	–	–
CC(C)(Cc1ccc(COc2ccc(-c3ccn[nH]3)nc2)cc1)C(=O)O [Example 71-25]	–	–	300	4800
O=C(O)C1(Cc2ccc(CCOc3ccc(-c4ccn[nH]4)nc3)cc2)COC1 [Example 74-12, 3-[[4-[2-[6-(1H-Pyrazol-5-yl)pyridin-3-yl]oxyethyl]phenyl]methyl]oxetane-3-carboxylic Acid]	–	–	510	13000
